Data taken from BindingDB's records for doi:10.7270/Q2M61HPT (Nmmlsc, 2008).

These molecules were tested against Glutathione S-transferase class-mu 26 kDa isozyme (Schistosoma japonicum, UniProt P08515) (assay: GST–glutathione interaction disruption – biochemical, multiplex beads, flow cytometry, HPSMTB buffer, profiling panel (AID 1324)).
Glutathione S-transferase class-mu 26 kDa isozyme, sequence (P08515 2-218 limits assumed): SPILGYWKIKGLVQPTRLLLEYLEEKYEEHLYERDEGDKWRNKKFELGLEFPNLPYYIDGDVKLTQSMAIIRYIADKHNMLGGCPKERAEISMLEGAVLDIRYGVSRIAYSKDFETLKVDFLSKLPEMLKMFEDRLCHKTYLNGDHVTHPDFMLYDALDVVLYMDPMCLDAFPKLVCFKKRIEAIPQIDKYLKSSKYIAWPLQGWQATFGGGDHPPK

Row | SMILES | EC50 [µM]
1 | CN(C)[C@@H]1C(=O)C(C(=O)NCN2CCCC2)C(=O)[C@@]2(O)C(=O)C3C(=O)c4c(O)cccc4[C@@](C)(O)C3CC12 (stereo partly drawn) [(2Z,4S,6S,12aS)-4-(dimethylamino)-6,10,11,12a-tetrahydroxy-2-[hydroxy-(1-pyrrolidinylmethylamino)methylidene]-6-methyl-4,4a,5,5a-tetrahydrotetracene-1,3,12-trione] | 21.4
2 | COc1cc(CN=Nc2nn3cnnc3c3ccccc23)ccc1O [(4E)-2-methoxy-4-[[2-([1,2,4]triazolo[3,4-a]phthalazin-6-yl)hydrazinyl]methylidene]cyclohexa-2,5-dien-1-one] | 2.36
3 | O=[N+]([O-])c1ccc(N=NCc2ccc(O)c(O)c2O)c(S(=O)(=O)N2CCOCC2)c1 [MLS000336720] | 24
4 | COc1cccc(CN=Nc2nn3cnnc3c3ccccc23)c1 [N-[1-(3-Methoxy-phenyl)-meth-(E)-ylidene]-N'-[1,2,4]triazolo[3,4-a]phthalazin-6-yl-hydrazine] | 7.28
